Reference: ChEMBL document CHEMBL3797052 (Eur J Med Chem, 2016)

Tested on: not listed separately
Assay: Antiproliferative activity against human SW620 cells assessed as growth inhibition after 48 hrs by sulforhodamine B assay
Assay type: functional
Conditions: SW-620, 48 h
For `CNC(=O)c1cc(Oc2ccc3nc(NC(=O)c4cc(C(F)(F)F)cc(C(F)(F)F)c4)sc3c2)ccn1`, the GI50 was 7.56 µM and the TGI was 63.8 µM.

Same assay, conditions: SW-620, 48 h, read-out: LC50 (the source's name)
In the case of `CNC(=O)c1cc(Oc2ccc3nc(NC(=O)c4cc(C(F)(F)F)cc(C(F)(F)F)c4)sc3c2)ccn1`, the CC50 is reported as > 100 µM.

Tested on: not listed separately
Assay: Antiproliferative activity against human SF268 cells assessed as cell growth at 10^-6 M after 48 hrs by sulforhodamine B assay
Assay type: functional
Conditions: SF-268, 48 h, read-out: Activity
Work on `CNC(=O)c1cc(Oc2ccc3nc(NC(=O)c4cc(C(F)(F)F)cc(C(F)(F)F)c4)sc3c2)ccn1` yielded a growth at 1 µM of 79%.

Tested on: KM12
Assay: Antiproliferative activity against human KM12 cells assessed as cell growth at 10^-4 M after 48 hrs by sulforhodamine B assay
Assay type: functional
Conditions: KM12, 48 h, read-out: Activity
With `CNC(=O)c1cc(Oc2ccc3nc(NC(=O)c4cc(C(F)(F)F)cc(C(F)(F)F)c4)sc3c2)ccn1` the growth at 100 µM was -52%.

Tested on: not listed separately
Assay: Antiproliferative activity against human RPMI8226 cells assessed as cell growth at 10^-8 M after 48 hrs by sulforhodamine B assay
Assay type: functional
Conditions: RPMI-8226, 48 h, read-out: Activity
For `CNC(=O)c1cc(Oc2ccc3nc(NC(=O)c4cc(C(F)(F)F)cc(C(F)(F)F)c4)sc3c2)ccn1`, the growth at 0.01 µM was 97%.

Tested on: MCF7
Assay: Antiproliferative activity against human MCF7 cells assessed as growth inhibition after 48 hrs by sulforhodamine B assay
Assay type: functional
Conditions: MCF7, 48 h
In the case of `CNC(=O)c1cc(Oc2ccc3nc(NC(=O)c4cc(C(F)(F)F)cc(C(F)(F)F)c4)sc3c2)ccn1`, the GI50 is reported as 3.37 µM and the TGI is reported as 18 µM.

Same assay, conditions: MCF7, 48 h, read-out: LC50 (the source's name)
In the case of `CNC(=O)c1cc(Oc2ccc3nc(NC(=O)c4cc(C(F)(F)F)cc(C(F)(F)F)c4)sc3c2)ccn1`, the CC50 is reported as > 100 µM.

Tested on: U-251
Assay: Antiproliferative activity against human U251 cells assessed as cell growth at 10^-7 M after 48 hrs by sulforhodamine B assay
Assay type: functional
Conditions: U-251, 48 h, read-out: Activity
With `CNC(=O)c1cc(Oc2ccc3nc(NC(=O)c4cc(C(F)(F)F)cc(C(F)(F)F)c4)sc3c2)ccn1` the growth at 0.1 µM was 97%.

Tested on: NCI-H226
Assay: Antiproliferative activity against human NCI-H226 cells assessed as growth inhibition after 48 hrs by sulforhodamine B assay
Assay type: functional
Conditions: NCI-H226, 48 h
`CNC(=O)c1cc(Oc2ccc3nc(NC(=O)c4cc(C(F)(F)F)cc(C(F)(F)F)c4)sc3c2)ccn1` gave a GI50 of 4.15 µM and a TGI of 17.4 µM.

Same assay, conditions: NCI-H226, 48 h, read-out: LC50 (the source's name)
For `CNC(=O)c1cc(Oc2ccc3nc(NC(=O)c4cc(C(F)(F)F)cc(C(F)(F)F)c4)sc3c2)ccn1`, the CC50 was 76.2 µM.

Tested on: not listed separately
Assay: Antiproliferative activity against human UACC257 cells assessed as cell growth at 10^-7 M after 48 hrs by sulforhodamine B assay
Assay type: functional
Conditions: UACC-257, 48 h, read-out: Activity
`CNC(=O)c1cc(Oc2ccc3nc(NC(=O)c4cc(C(F)(F)F)cc(C(F)(F)F)c4)sc3c2)ccn1` showed a growth at 0.1 µM of 95%.

Tested on: not listed separately
Assay: Antiproliferative activity against human DU145 cells assessed as growth inhibition after 48 hrs by sulforhodamine B assay
Assay type: functional
Conditions: DU-145, 48 h
`CNC(=O)c1cc(Oc2ccc3nc(NC(=O)c4cc(C(F)(F)F)cc(C(F)(F)F)c4)sc3c2)ccn1` gave a GI50 of 3.69 µM and a TGI of 15.9 µM.

Same assay, conditions: DU-145, 48 h, read-out: LC50 (the source's name)
With `CNC(=O)c1cc(Oc2ccc3nc(NC(=O)c4cc(C(F)(F)F)cc(C(F)(F)F)c4)sc3c2)ccn1` the CC50 was 65 µM.

Tested on: not listed separately
Assay: Antiproliferative activity against human DU145 cells assessed as cell growth at 10^-7 M after 48 hrs by sulforhodamine B assay
Assay type: functional
Conditions: DU-145, 48 h, read-out: Activity
For `CNC(=O)c1cc(Oc2ccc3nc(NC(=O)c4cc(C(F)(F)F)cc(C(F)(F)F)c4)sc3c2)ccn1`, the growth at 0.1 µM was 105%.

Tested on: EKVX
Assay: Antiproliferative activity against human EKVX cells assessed as cell growth at 10^-7 M after 48 hrs by sulforhodamine B assay
Assay type: functional
Conditions: read-out: Activity
Work on `CNC(=O)c1cc(Oc2ccc3nc(NC(=O)c4cc(C(F)(F)F)cc(C(F)(F)F)c4)sc3c2)ccn1` yielded a growth at 0.1 µM of 91%.

Tested on: not listed separately
Assay: Antiproliferative activity against human OVCAR8 cells assessed as cell growth at 10^-8 M after 48 hrs by sulforhodamine B assay
Assay type: functional
Conditions: OVCAR-8, 48 h, read-out: Activity
For `CNC(=O)c1cc(Oc2ccc3nc(NC(=O)c4cc(C(F)(F)F)cc(C(F)(F)F)c4)sc3c2)ccn1`, the growth at 0.01 µM was 97%.

Tested on: T47D
Assay: Antiproliferative activity against human T47D cells assessed as cell growth at 10^-4 M after 48 hrs by sulforhodamine B assay
Assay type: functional
Conditions: read-out: Activity
`CNC(=O)c1cc(Oc2ccc3nc(NC(=O)c4cc(C(F)(F)F)cc(C(F)(F)F)c4)sc3c2)ccn1` gave a growth at 100 µM of -40%.

Tested on: not listed separately
Assay: Antiproliferative activity against human HCT15 cells assessed as cell growth at 10^-4 M after 48 hrs by sulforhodamine B assay
Assay type: functional
Conditions: HCT-15, 48 h, read-out: Activity
Compound `CNC(=O)c1cc(Oc2ccc3nc(NC(=O)c4cc(C(F)(F)F)cc(C(F)(F)F)c4)sc3c2)ccn1` has a growth at 100 µM of -29%.

Tested on: M14
Assay: Antiproliferative activity against human M14 cells assessed as cell growth at 10^-7 M after 48 hrs by sulforhodamine B assay
Assay type: functional
Conditions: M14, 48 h, read-out: Activity
Compound `CNC(=O)c1cc(Oc2ccc3nc(NC(=O)c4cc(C(F)(F)F)cc(C(F)(F)F)c4)sc3c2)ccn1` has a growth at 0.1 µM of 91%.

Tested on: CCRF-CEM
Assay: Antiproliferative activity against human CCRF-CEM cells assessed as cell growth at 10^-4 M after 48 hrs by sulforhodamine B assay
Assay type: functional
Conditions: read-out: Activity
Work on `CNC(=O)c1cc(Oc2ccc3nc(NC(=O)c4cc(C(F)(F)F)cc(C(F)(F)F)c4)sc3c2)ccn1` yielded a growth at 100 µM of 25%.
